Assay results: patent EP4653017A1, “ANTIBODY-DRUG CONJUGATE AND USE THEREOF” (Tyligand Bioscience (Shanghai) Limited, priority 2023, dated 2024)
Where a name gives a salt, the structure may show the parent alone.

How the values were obtained:
B16F10 = assay: Inhibition of tumor cell line proliferation (Table 3), B16F10; format: cell-based; settings: B16-F10; B16F10, Mouse melanoma cells
Daudi = assay: Inhibition of tumor cell line proliferation (Table 3), Daudi; format: cell-based; settings: Human Burkitt's lymphoma cells
MC38 = assay: Inhibition of tumor cell line proliferation (Table 3), MC38; format: cell-based; settings: MC-38; MC38, Mouse colon cancer cells
SK-MEL5 = assay: Inhibition of tumor cell line proliferation (Table 3), SK-MEL5; format: cell-based; settings: SK-MEL-5; SK-MEL5, Human melanoma cells
4T1 = assay: Inhibition of tumor cell line proliferation (Table 3), 4T1; format: cell-based; settings: 4T1, Mouse breast cancer cells
CT26 cells = assay: CT26 syngeneic mouse bilateral transplanted tumor model; format: in vivo, BALB/c mice; settings: left (untreated) tumor; 50 µg compound/mouse (2.5 mg/kg) intratumorally into right flank on days 0 and 4; day 13 after treatment
Procedure: When tumors grew to an average volume of 100 mm^3, treatments were randomized and started based on tumor size and mouse body weight. The first day of dosing was Day 0. Two doses were administered, 50 µg compound/mouse (i.e., 2.5 mg/kg) was injected intratumorally into the right flank on days 0 and 4, and the same volume of PBS (Hyclone Company, Cat. No. #SH30258.01) was used as a control. The left tumor was left untreated. Control mice were sacrificed after 13 days of dosing and treated mice were sacrificed 21 days later. During the experiment, the tumor volume and body weight were measured three times a week on the left and right sides, and the tumor volume was calculated as V = D × d × d/2 (wherein D represents the long diameter of the tumor and d represents the short diameter of the tumor).

[1] = tested on: lymphoma Raji-hClaudin 18.2 cells; assay: Inhibition of Raji-hClaudin 18.2 cell proliferation (CTG assay); format: cell-based
Procedure: Raji-hClaudin 18.2 cells (provided by Elpiscience) were cultured at 37°C, 5% CO2 and 95% humidity in RPMI 1640 + 10% FBS (ExCell Bio, Cat. No. #FND500) + 10 ug/mL Blasticidin (Beyotime, Cat. No. #ST-018), the cells in logarithmic growth phase were harvested and counted, and cell viability was measured using Countstar automated cell counter based on classical trypan blue staining principle to ensure that the cell viability was above 90%. The cell concentration was adjusted, 135 µL of cell suspension was added into 96 well clear flat bottom black wall plate (Corning, Cat. No. #3904), 10000/well, and the cells were incubated in 96 well plate at 37°C and 5% CO2.
The cells in the 96 well plates that had been dosed were incubated at 37°C, 5% CO2 for 5 days before performing CTG assay. The plate was equilibrated to room temperature for 30 min and CTG Reagent (CellTiter-Glo® Luminescent Cell Viability Assay (Promega, Cat. No. #G7573) was melt, 50 µL of CTG Solution was added to each well, and shaked on an orbital shaker for 2 min to lyse the cells. The plate was left at room temperature for 10 min to stabilize the cold light signal and the cold light value was read (EnVision ® Multifunctional Plate Reader, PerkinElmer#2105). [formula] […]

[2] = tested on: human ovarian cancer SK-OV-3; assay: SK-OV-3 subcutaneous xenograft model, Example 7 (ADC-1, ADC-2); format: in vivo, BALB/c Nude mice; settings: 0.1 mg/kg; for Tumor growth inhibition (TGI) / Rate of complete tumor regression (TV = 0 mm^3): Day 21; for Rate of complete tumor regression (TV = 0 mm^3): 5 mice
Procedure: 0.1 mL (1×10^7) of human ovarian cancer SK-OV-3 cells (purchased from ATCC, Cat#HTB-77) (PBS: matrigel volume ratio of 1:1) was subcutaneously inoculated into the right posterior back of each mouse (BALB/c Nude mice, 6-8 weeks old, female, Jiangsu GemPharmatech Co., Ltd.). When the mean tumor volume reached approximately 150 mm^3, the mice were randomly divided into 9 experimental groups, with 5 mice in each group. […] Group 9 was received intratumoral injection of CDN-3 0.1 mg/kg on Days 0, 4, and 7 of the study for a total of 3 drug doses (see Table 4 for animal grouping). The vehicle was a PBS buffer. Tumor volume and body weight were measured twice weekly during the experimental period, and data was recorded. Tumor volume was calculated according to the formula in Example 3.

Nc1nc2c(ncn2[C@@H]2O[C@@H]3CO[P@@](=O)(S)O[C@H]4[C@H](F)[C@H](n5cnc6c(N)nc(Cl)nc65)O[C@@H]4CO[P@@](=O)(S)O[C@@H]2[C@@H]3O)c(=O)[nH]1 [CDN-3, (2',3')-cyclo-(Rp,Rp)-[2'-O-thiophosphodiester-guanosine]-[3'-O-thiophosphodiester-2-chloro-2'-deoxy-2'-fluoro-beta-adenosine]diammonium salt]
IC50 (B16F10): 8700 nM
IC50 (Daudi): 423 nM
IC50 (MC38): 1020 nM
IC50 (SK-MEL5): 505 nM
IC50 (4T1): 2270 nM
growth inhibition rates of left tumors (CT26 cells): 91.2%
inhibition effects on Raji-hClaudin 18.2 cell proliferation (in words) [1]: strong inhibition effects
IC50 ([1]; 120 h, Raji-hClaudin 18.2, 5 days incubation, top concentration 600 nM): 131 nM
Tumor Volume (mm^3, Day 21) ([2]; i.t., day 0, 4, 7): 540 ± 47 mm^3
Tumor growth inhibition (TGI) ([2]; i.t., day 0, 4, 7): 39%
Rate of complete tumor regression (TV = 0 mm^3) ([2]; i.t., day 0, 4, 7): 0% (0/5)
Tumor Volume (mm^3, Day 21) ([2]; i.v., day0): 723 ± 140 mm^3
Tumor growth inhibition (TGI) ([2]; i.v., day0): 10%
Rate of complete tumor regression (TV = 0 mm^3) ([2]; i.v., day0): 0% (0/5)
